Experimental findings from patent publication US20260098072A1, “METHODS OF STIMULATING APPETITE AND/OR INCREASING BODY WEIGHT USING NON-NATURALLY OCCURRING MELANOCORTIN RECEPTOR ANTAGONIST ANALOGS” (Endevica Bio, Inc., priority 2022, published 2026) are described below.

Data set [1] concerns LPS model of cachexia. As to the kind of experiment: LPS-induced cachexia assay in rats. Type of data set: in vivo, rat. The note with it: for peripheral (IP) anti-cachexia activity / blood-brain barrier transport: peripheral administration. The method, then:
The LPS model uses rats were maintained on a 12 h light/dark schedule with ad libitum access to food and water. Animals were handled daily for a minimum of three consecutive days to decrease non-specific handling stress. On the day of the experiment, individually housed animals received intraperitoneal injections of LPS dissolved in 0.5% low-endotoxin BSA, 0.9% saline or 0.5% BSA in 0.9% saline alone, and were returned to their home cage. The drug or control was administered (ICV, IP, or PO, depending on the type of study) 1-hour after LPS injection.
In the experiments performed in accordance with the present technology, a series of melanocortin receptor antagonist peptides were examined in a bacterial endotoxin inducing cachexia assay. For this assay, a rat is challenged with a single peripheral injection of lipopolysaccharide (LPS). LPS is a heat-stable lipo-polysaccharide, the major component of the outer membrane (capsule) of gram negative bacteria. In non-capsulated strains, it appears as a cell surface protein. LPS produces a strong immune response, including secretion of the proinflammatory cytokines Tumor Necrosis Factor α (TNFα) and interleukin-1 (IL-1). Proinflammatory cytokines are known factors that induce cachexia.
Rats are maintained on a 12-hour light/dark cycle. Animals are handled daily for a minimum of 5 consecutive days to acclimate them to the handling required for the experiment. […] On the day of the experiment, individually housed animals receive intraperitoneal (IP) injections of LPS dissolved in 0.5% low-endotoxin BSA, 0.9% saline or 0.5% BSA in 0.9% saline alone, and returned in their home cage. Melanocortin receptor antagonist peptides were administered (IP or by gavage, depending on the type of study) one hour after the LPS injection. The extent of cachexia is measured by the reduction in food intake, measured every two hours. The cachexia typically lasts only a single day. However, rats lose up to 5% of their body weight during a 12-hour light cycle, making up this loss plus food needed for normal growth during the 12-hour dark cycle. Thus, failure to eat appropriately during a single dark cycle is determinable from the animal's weight and any changes thereof.
A series of melanocortin receptor antagonist peptides were examined in a bacterial toxin inducing cachexia assay. In this assay, a rat was challenged with a single peripheral injection of lipopolysaccharide (LPS), a bacterial toxin that rapidly induces acute cachexia. The extent of cachexia was measured as a reduction in food intake, measured every two hours. The cachexia typically lasts only a single day.

Data set [2] deals with urethane-anesthetized rats. Nature of the data set: Cardiovascular effects (MAP, heart rate, ECG) in urethane-anesthetized rats.
Experimental: These studies were performed in urethane-anesthetized rats, since anesthesia is required for six-lead ECG monitoring. […] Initial selection of doses was guided by FDA exploratory IND studies with a recommendation for at least a 100-fold excess of the human dose.
The target of data set [3] is human melanocortin 4 receptor (MC4R) (human) (UniProt P32245). As to the kind of experiment: cell-based or functional assay.
human melanocortin 4 receptor (MC4R) (human), sequence (P32245 whole entry): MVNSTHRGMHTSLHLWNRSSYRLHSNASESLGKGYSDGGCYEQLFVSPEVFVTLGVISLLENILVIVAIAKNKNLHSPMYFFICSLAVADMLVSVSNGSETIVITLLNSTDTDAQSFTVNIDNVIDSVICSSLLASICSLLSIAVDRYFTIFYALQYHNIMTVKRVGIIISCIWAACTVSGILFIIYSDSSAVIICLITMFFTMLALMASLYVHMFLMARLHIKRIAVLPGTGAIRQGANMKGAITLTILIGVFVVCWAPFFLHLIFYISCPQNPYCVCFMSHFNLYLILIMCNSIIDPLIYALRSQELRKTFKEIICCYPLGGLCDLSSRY
Data set [4] deals with human melanocortin 3 receptor (MC3R) (human) (UniProt P41968). As to the kind of experiment: cell-based or functional assay.
human melanocortin 3 receptor (MC3R) (human), sequence (P41968 whole entry): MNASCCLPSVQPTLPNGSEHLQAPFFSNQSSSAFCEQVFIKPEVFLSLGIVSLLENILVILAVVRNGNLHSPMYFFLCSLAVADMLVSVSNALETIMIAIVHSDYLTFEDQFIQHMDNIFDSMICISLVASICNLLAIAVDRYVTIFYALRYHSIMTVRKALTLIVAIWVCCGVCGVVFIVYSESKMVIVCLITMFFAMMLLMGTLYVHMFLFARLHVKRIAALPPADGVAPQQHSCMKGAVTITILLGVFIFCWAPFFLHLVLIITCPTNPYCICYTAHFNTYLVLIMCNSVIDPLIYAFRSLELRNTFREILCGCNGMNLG
Data set [5] relates to Lewis sarcoma rat model. As to the kind of experiment: Lewis sarcoma rat model of cancer cachexia. Type of data set: in vivo. How it is done: This sarcoma is an aggressive form of cancer that produces significant cachexia. Popp et al., Cancer 49 (6): 1212-1220 (1982). In the protocol, “treatment” began 8-days after tumor implantation, with a significant decrease in food intake from baseline. Body composition was determined by NMR prior to tumor implantation, and on the final day of the experiment after tumor resection, by ECHO MRI (NMR). Tumor implantation produces cachexia on or about the sixth day. The non-naturally occurring melanocortin analog or saline was administered after day 8 and continued through day 12.

Entries after “also recorded” stand apart in the source; their conditions may differ. Positions of bridges follow the written chain, without caps; N, C: chain ends. Non-standard residues stand in square brackets, D forms with d. Residues, ends and D or L forms follow the SMILES beside them. No end group written: not given here. d2Nal = N[C@H](Cc1ccc2ccccc2c1)C(=O)O; Nle = CCCC[C@H](N)C(=O)O

For “Ac-Nle-c[Asp-Pro-DNal(2′)-Arg-Trp-Lys]-DVal-DPro (Ac-[Nle]DP[d2Nal]RWK[dV][dP]; lactam 2-7) [TCMCB07A]”, the “peripheral (IP) anti-cachexia activity / blood-brain barrier transport” value in data set [1] is on record as “equivalent stimulation of feeding”.

As to “Ac-Nle-c[Asp-Pro-DNal(2′)-Arg-Trp-Lys]-β^2Val-β^3Pro-NH2 [TCMCB08]”, the “oral activity / gastrointestinal transport” value in data set [1] (gavage (intra-gastric)) is recorded as “no gastrointestinal transport; also recorded: not as much oral activity as TCMCB07”. Further, the “peripheral (IP) anti-cachexia activity / blood-brain barrier transport” value in data set [1] was “has peripheral activity; also recorded: good blood-brain barrier transport”.

Take “Ac-Nle-c[D-Asp-Pro-DNal(2′)-Arg-Trp-DLys]-DPro-DVal-NH2 (Ac-[Nle][dD]P[d2Nal]RW[dK][dP][dV]-NH2; lactam 2-7) [TCMCB04]”: in data set [1], the “anti-cachectic activity after ICV administration” value (“anti-cachectic activity” below) is “superior anti-cachectic activity compared to the parent compound”; the “peripheral (IP) anti-cachexia activity / blood-brain barrier transport” value is “No difference was observed between the non-naturally occurring melanocortin analog and saline; also recorded: eliminated blood brain barrier transport”.

As to “Ac-Nle-c[Asp-His-DNal(2′)-Arg-Trp-Lys]-DPro-DVal-NH2 (Ac-[Nle]DH[d2Nal]RWK[dP][dV]-NH2; lactam 2-7; SMILES CCCC[C@H](NC(C)=O)C(=O)N[C@H]1CC(=O)NCCCC[C@@H](C(=O)N2CCC[C@@H]2C(=O)N[C@@H](C(N)=O)C(C)C)NC(=O)[C@H](Cc2c[nH]c3ccccc23)NC(=O)[C@H](CCCNC(=N)N)NC(=O)[C@@H](Cc2ccc3ccccc3c2)NC(=O)[C@H](Cc2c[nH]cn2)NC1=O) [TCMCB03]”, in data set [1], the “anti-cachectic activity” value was “enhanced anti-cachexia; also recorded: superior anti-cachexia activity following ICV administration” and the “peripheral (IP) anti-cachexia activity / blood-brain barrier transport” value was “failed to cross the blood brain barrier; also recorded: did not possess as good peripheral (intraperitoneal/IP administration) anti-cachexia activity”.

In the case of `O=C(N[C@H](Cc1ccc(Cl)cc1)C(=O)N1CCC(Cn2cncn2)(C2CCCCC2)CC1)[C@H]1Cc2ccccc2CN1` [THIQ, N-[(3R)-1,2,3,4-tetrahydroisoquinolinium-3-ylcarbonyl]-(1R)-1-(4-chlorobenzyl)-2-[4-cyclohexyl-4-(1H-1,2,4-triazol-1-ylmethyl)piperidin-1-yl]-2-oxoethylamine], in data set [2] (300 nmol), the “Duration” value is on record as 19 ± 4 min, the “Peak Heart Rate Response (BPM)” value is on record as 81 ± 09 BPM and the “Peak MAP Response (Δ mm Hg)” value turned out to be 22 ± 11 mm Hg.

In data set [3], HS024 (TFA) (peptide) had an IC50 (cAMP by HTRF, antagonist dose-response) of 153 nM and a Max Activation % of 104%. Also, in data set [4], the IC50 (cAMP by HTRF, antagonist dose-response) was 867 nM and the Max Activation % stood at 102%.

On to `CCCC[C@H](NC(C)=O)C(=O)N[C@H]1CC(=O)NCCCC[C@@H](C(=O)N[C@@H](C(=O)N2CCC[C@@H]2C(=O)N[C@@H](C(=O)O)[C@H](C)O)[C@H](C)O)NC(=O)[C@H](Cc2c[nH]c3ccccc23)NC(=O)[C@H](CCCNC(=N)N)NC(=O)[C@@H](Cc2ccc3ccccc3c2)NC(=O)[C@@H]2CCCN2C1=O` [TCMCB01, Ac-Nle-c[Asp-Pro-DNal(2′)-Arg-Trp-Lys]-DThr-DPro-DThr] (Ac-[Nle]DP[d2Nal]RWK[dT][dP][dT]-OH; lactam 2-7), for which, in data set [1], the “anti-cachectic activity” value is reported as “only produced an anti-cachexia effect when given by IVt administration” and the “peripheral (IP) anti-cachexia activity / blood-brain barrier transport” value is “did not have peripheral activity; also recorded: no blood-brain barrier transport”. Moreover, in data set [5] (2 nmol once per day), the “food intake (reversal of cachexia-anorexia)” value is on record as “equivalent to AGRP; also recorded: reversed the cachexia-anorexia of the tumor burden”; the “potency compared with AGRP and SHU9119” value was “as potent as the natural melanocortin system inhibitor Agouti Related Protein (AGRP), and significantly more potent than SHU9119”. The “body weight after tumor implantation” value in data set [5] (daily body weight) is on record as “significantly greater than saline controls”. In data set [5] (p=0.05), the “lean body mass (NMR after tumor excision)” value was “increased lean body mass”. In data set [5] (related study (not shown)), the “anti-cachectic effect relative to AGRP” value is on record as 20 % greater than AGRP. Also, in data set [2] (600 nmol), the “Duration” value is recorded as 0 min, the “Peak Heart Rate Response (BPM)” value is on record as 0/0 BPM and the “Peak MAP Response (Δ mm Hg)” value is 0/0 mm Hg. For the same compound, the “cardiovascular activity / side effects” value in data set [2] (rat, in vivo) is “little cardiovascular activity”.

“Ac-Nle-c[Asp-Pro-DNal(2′)-Arg-Trp-Lys]-β^3Val-β^3Pro-NH2 [TCMCB09]”: in data set [1], the “peripheral (IP) anti-cachexia activity / blood-brain barrier transport” value was “inactive peripherally”.

Turning to “Ac-Nle-c[Asp-Pro-dNal(2′)-Arg-Trp-Lys]-dVal-dPro-NH2 (Ac-[Nle]DP[d2Nal]RWK[dV][dP]-NH2; lactam 2-7) [TCMCB07]”, the gastrocnemius mass result in data set [5] (low and high dose) is listed as “preservation of gastrocnemius mass”.

On to `CCCC[C@H](NC(=O)[C@H](Cc1ccc(O)cc1)NC(=O)[C@H](CO)NC(C)=O)C(=O)N[C@@H](CCC(=O)O)C(=O)N[C@@H](Cc1c[nH]cn1)C(=O)N[C@H](Cc1ccccc1)C(=O)N[C@@H](CCCNC(=N)N)C(=O)N[C@@H](Cc1c[nH]c2ccccc12)C(=O)NCC(=O)N[C@@H](CCCCN)C(=O)N1CCC[C@H]1C(=O)N[C@H](C(N)=O)C(C)C` [MT-I, Ac-Ser-Tyr-Nle-Glu-His-DPhe-Arg-Trp-Gly-Lys-Pro-Val-NH2] (Ac-SY[Nle]EH[dF]RWGKPV-NH2), for which, in data set [2] (250 nmol), the “Duration” value was determined as 0 min, the “Peak Heart Rate Response (BPM)” value is 0/0 BPM and the “Peak MAP Response (Δ mm Hg)” value is on record as 0/0 mm Hg.

As to “Ac-Nle-c[Asp-Pro-DNal(2′)-Arg-Trp-Lys]-β^3Pro-β^3Val-NH2 [TCMCB06]”, the “food intake and body weight, 24-hours” value in data set [1] (0.2 mg/kg intraperitoneally) is “ate less food than the other non-naturally occurring melanocortin analogs, and had no weight gain”. In data set [1], the “anti-cachectic activity” value is “molar activity equivalent to TCMCB02”. Further, the “molar activity relative to TCMCB02” value in data set [1] (ICV-administration) was 10 fold.

`CCCC[C@H](NC(C)=O)C(=O)N[C@H]1CC(=O)NCCCC[C@@H](C(=O)O)NC(=O)[C@H](Cc2c[nH]c3ccccc23)NC(=O)[C@H](CCCN=C(N)N)NC(=O)[C@@H](Cc2ccccc2)NC(=O)[C@H](Cc2cnc[nH]2)NC1=O` [Bremelanotide (PT-141), Ac-Nle-c[Asp-His-DPhe-Arg-Trp-Lys]-COOH]: in data set [2] (250 nmol), the “Duration” value is 140 ± 53 min, the “Peak Heart Rate Response (BPM)” value was found to be 44 ± 6 BPM and the “Peak MAP Response (Δ mm Hg)” value is 32 ± 6 mm Hg. Also, the “MAP after lethal dose” value in data set [2] (900 nmol/kg IV, baseline MAP 80 mmHg) worked out at 140 mmHg. The lethal dose in data set [2] (IV) is given as 900 nmol/kg. Further, in data set [2] (IV 600 nmol/kg), the “ECG tracing (lead 2)” value was “inverted P-wave”.

Consider “Ac-Nle-c[Asp-Pro-DNal(2′)-Arg-Trp-Lys]-β^3Pro-β^3Pro-NH2 [TCMCB10]”, for which, in data set [1], the “anti-cachectic activity” value is “maintaining direct inhibitory effects” and the “peripheral (IP) anti-cachexia activity / blood-brain barrier transport” value is recorded as “showed no peripheral activity”.
